Assay results reported in ChEMBL document CHEMBL1157539, “Thousands of chemical starting points for antimalarial lead identification” (Nature, 2010).

Tested on: Plasmodium falciparum
Test: GSK_TCMDC: Inhibition of Plasmodium falciparum 3D7 in whole erythrocytes, using parasite LDH activity as an index of growth.
Assay type: functional, organism-based
Conditions: Plasmodium falciparum, 3D7

In order of rising XC50:
1. CCOC(=O)c1cc(Cl)ccc1OCCCON1C(=N)N=C(N)NC1(C)C  0.0032 µM
2. COc1cc(CCOc2c(C)nc(N)nc2N)cc(OC)c1OC  0.0238 µM
3. CC(O)CNc1nc2ccccc2n1CC(=O)Nc1cccc(C(=O)Nc2cccc(C(F)(F)F)c2)c1 (stereo unspecified)  0.103 µM
4. CC(C)Oc1cc(-c2ccc(S(C)(=O)=O)cc2)nc(N(Cc2cccc(F)c2F)Cc2cccc(F)c2F)n1  0.121 µM
5. Nc1nc(N)c2nc(C3CC=CCC3)c(N)nc2n1 (stereo unspecified)  0.162 µM
6. Cc1cccc(-c2cc3cc(Nc4ccnc5cc(-c6nccs6)ccc45)ccc3[nH]2)c1  0.174 µM
7. O=c1nc2[nH]c3ccccc3n2c(=O)[nH]1  0.174 µM
8. O=[N+]([O-])c1ccc(-n2nc(-c3cccnc3)n(Cc3ccco3)c2=S)c(Cl)c1  0.2 µM
9. COc1ccc(-n2ccnc2SCC(=O)Nc2cc(C)ccc2C)c(OC)c1  0.205 µM
10. COc1ccc2c(NN=Cc3cccc(F)c3)ccnc2c1  0.207 µM
11. Cc1[nH]cnc1-c1cccc(NC(=O)c2cc3ccccc3s2)c1  0.21 µM
12. CC[C@H]1CN2CCc3cc(OC)c(OC)cc3[C@@H]2C[C@@H]1C[C@H]1NCCc2c1cc(OC)c(O)c2I  0.216 µM
13. CCCC1N=C(N)N=C(N)N1c1ccc(OC)cc1 (stereo unspecified)  0.234 µM
14. COC(=O)c1cccc(CNCc2ccc(-c3cccc(-c4nc5ccccc5[nH]4)c3)cc2)c1  0.261 µM
15. Cc1ccc(C)c(Cn2ccc3nc(N)nc(N)c32)c1  0.301 µM
16. CN(C(=O)Nc1ccc(C(F)(F)F)cc1)C1CCN(CCCCCNC(=O)/C=C/c2ccc(Cl)c(Cl)c2)CC1  0.33 µM
17. Cc1ccc(C(=O)Cn2nc(-c3ccc(C)c(S(=O)(=O)N4CCCCC4)c3)ccc2=O)cc1  0.333 µM
18. O=C(Nc1cccc(-c2ccc(-c3nc4cc(C(F)(F)F)ccc4[nH]3)cc2)c1)c1ccncc1  0.337 µM
19. CCn1cc(-c2nc(-c3cc(OC)cc(OC)c3)no2)c(=O)c2ccccc21  0.338 µM
20. Nc1nc2c(ncn2OC[C@H](CO)OCP(=O)(O)O)c(=O)[nH]1  0.341 µM
21. O=C(Nc1ccc(-c2ccccc2)cc1)Nc1cccc(Cn2nc(Cl)c(N3CCNCC3)cc2=O)c1  0.369 µM
22. O=C1C(c2ccccc2)=C(Nc2cc(Cl)cc(Cl)c2)c2ccccc21  0.372 µM
23. CC(C)(C)c1cc2cc(Nc3ccnc4cc(-c5nccs5)ccc34)ccc2[nH]1  0.441 µM
24. COc1ccc(-c2ccc(NC(=O)c3cccc(Cl)c3)cc2)cc1CNC(C)C  0.466 µM
25. Cc1cccc2nc(-c3ccc(-c4ccc(CNCc5ccccc5)cc4)cc3)[nH]c12  0.508 µM
26. O=C(/C=C/c1ccccc1)N1CCOC(CCN2CCC(c3ccccc3)CC2)(c2ccc(Cl)c(Cl)c2)C1 (stereo unspecified)  0.516 µM
27. CCn1cc(C=C2Oc3c(ccc(O)c3CN3CCCCC3)C2=O)c2cc(OC)ccc21  0.521 µM
28. COC(=O)c1ccc(CC(C)NCC(O)c2cccc(Cl)c2Cl)cc1 (stereo unspecified)  0.548 µM
29. Nc1c(Cl)cc(C(O)CNCCCCCCOCCC=C2CCOCC2)cc1Cl (stereo unspecified)  0.634 µM
30. COc1ccccc1CCNc1nc(C)cc(N[C@@H](Cc2ccccc2)C(=O)NCc2cccs2)n1  0.634 µM
31. Clc1cc(Nc2ccnc3ccc(Br)cc23)ccc1Oc1ccc(Cl)c2ccccc12  0.634 µM
32. CCC(O)(C#Cc1c(C)nc(N)nc1N)CC  0.639 µM
33. Cc1nc(C)c(-c2ccc(-c3ccc(F)cc3)cc2)c(O)c1Cl  0.655 µM
34. COc1ccc2nc(-c3cccc(C)n3)nc(Nc3ccncc3)c2c1  0.669 µM
35. COC(=O)C1=CNC=C(C(=O)OC)C1c1ccc(Cl)c([N+](=O)[O-])c1  0.676 µM
36. Cn1c(Nc2nnc(C3CC3)s2)nc2cc(Nc3ccnc(Nc4cccc(CS(C)(=O)=O)c4)n3)ccc21  0.681 µM
37. N#Cc1ccc2c(c1)CCN(CCC1CCC(NC(=O)c3ccc(-c4ccccc4)s3)CC1)CC2 (stereo unspecified)  0.684 µM
38. Oc1ccc(CN2CCC(NCc3cccc(C(F)(F)F)c3)CC2)cc1  0.685 µM
39. CC(C)Cn1cc(C2CCN(CCN3CCC(CNC(=O)c4ccc(NC(=O)c5cc(Cl)cc(Cl)c5)cc4)CC3)CC2)c2ccccc21  0.693 µM
40. COc1ccc2nccc([C@@H](O)CN3CCC(NCc4cc5c(F)ccc(F)c5[nH]4)CC3)c2n1  0.699 µM
41. Cc1cc(N(C)C2CCN(CC3CCCCC3)C2)nc(Nc2ccc(Br)cc2)n1 (stereo unspecified)  0.703 µM
42. NC(=O)COc1c(C2CCN(CCCCNC(=O)c3ccc(-c4ccc(Cl)cc4)c(O)c3)CC2)ccc2c1CCCC2  0.706 µM
43. COc1cccc(C(=O)C2CC2CN2CC=C(c3c(C)[nH]c4ccccc34)CC2)c1 (stereo unspecified)  0.71 µM
44. O=C(NC1CCC(CN2CCC(c3c[nH]c4ccccc34)CC2)CC1)c1ccc(-c2cc(C(F)(F)F)ccc2Cl)o1 (stereo unspecified)  0.714 µM
45. N#Cc1ccc2c(c1)CCN(CCC1CCC(NC(=O)/C=C/c3cccc4ccccc34)CC1)CC2 (stereo unspecified)  0.729 µM
46. Cc1cccc(Cn2c(C(N)=O)nn(-c3ccc([N+](=O)[O-])cc3C#N)c2=S)c1  0.731 µM
47. CC(=O)Nc1nc(C(=O)Nc2cccc(-c3ccc4c(cnn4CC4CC4)c3)c2)cs1  0.735 µM
48. CCOC(=O)C(C(C)=O)C(c1ccccc1)C(C(C)=O)C(=O)OCC (stereo unspecified)  0.748 µM
49. NCC1CCCN1Cc1ccc(-c2cccc(-c3nc4cc(F)ccc4[nH]3)c2)cc1 (stereo unspecified)  0.751 µM
50. Cc1nc(Nc2ccc(F)cc2)nc(N2CCc3cc(O)ccc3C2C)c1C (stereo unspecified)  0.754 µM
51. CCc1ccc(C2CCN(CCCCNC(=O)c3ccc(NC(=O)c4ccc(Cl)cc4)cc3)CC2)c(OC)c1  0.785 µM
52. O=C(Nc1cccc(C(F)(F)F)c1)c1ccc(S(=O)(=O)NC2CCN(CC3CCCCC3)C2)cc1 (stereo unspecified)  0.789 µM
53. CCNc1cc(C)nc(Nc2ccc(F)cc2)n1  0.798 µM
54. CCN1CCN(c2cc(C)c3cc(NC(=O)c4cccc(OC)c4)ccc3n2)CC1  0.799 µM
55. Cn1nc(-c2ccc(NC(=O)Nc3cc(C(F)(F)F)ccc3F)cc2)c2cnc(NCCc3c[nH]cn3)nc21  0.813 µM
56. N#Cc1ccc(NC(=O)Nc2ccc(OC(F)(F)F)cc2)cc1  0.819 µM
57. COc1ccc(Nc2nc(NCc3ccc(-n4ccnc4)cc3)cc(-c3ccc(OC)cc3)n2)cc1  0.827 µM
58. COc1cccc(C2(C)CCN(CCCCNC(=O)c3ccc(NC(=O)c4ccc(Cl)cc4)cc3)CC2)c1  0.831 µM
59. O=C(NCc1cc2c(cc1Cl)OCO2)c1ccc(CNC2CCN(Cc3ccccc3)CC2)cc1  0.831 µM
60. N#Cc1cccc(NC(=O)C2=C(CCc3ccc4c(c3)OCO4)NC(=O)NC2c2cccc(C#N)c2)c1 (stereo unspecified)  0.834 µM
61. CC(C)NCc1ccc(-c2cccc(CN3CCC(c4ccccc4)CC3)c2)c(C(=O)NCC2CCCCC2)c1  0.847 µM
62. CCN(C(=O)c1ccc(NC(=O)c2cccs2)cc1)c1nc2c(C)cccc2s1  0.85 µM
63. O=c1cc(NCCCNCc2ccc(Cl)c(Cl)c2)[nH]c2ccc(Oc3ccccc3)cc12  0.85 µM
64. CC(C)C1=C[C@H]2C[C@]3(C4OCCO4)[C@@H]4CC[C@@H](C)[C@H]4C[C@@]2(C(=O)OCC2COCO2)[C@]13C(=O)OC(c1ccccc1)c1ccccc1 (stereo partly specified)  0.855 µM
65. O=C(CNC(=O)c1ccc(O)cc1)Nc1ccc(-c2cccc(-c3nc4cc(C(F)(F)F)ccc4[nH]3)c2)cc1  0.859 µM
66. COc1cc2nc(N(C)Cc3cccc(I)c3)nc(N)c2cc1OC  0.863 µM
67. Cn1cnc(CCNC(=O)c2ccc(-c3ccc(-c4nc5cc(F)ccc5[nH]4)cc3)cc2)c1  0.866 µM
68. Cc1ccc(O)cc1Nc1ccnc2cc(-c3nccs3)ccc12  0.879 µM
69. CCN1CCC(N(Cc2ccc(-c3ccc(C(F)(F)F)cc3)cc2)C(=O)Cn2c(SCc3cccc(F)c3F)cc(=O)c3ccccc32)C1 (stereo unspecified)  0.882 µM
70. CCc1ccc(CC(C)NCC(O)c2ccccc2)cc1 (stereo unspecified)  0.887 µM
71. Cc1cccc2nc(-c3ccc(-c4ccc(NC(=O)NCc5cccc(F)c5)cc4)s3)[nH]c12  0.887 µM
72. O=c1ccc2ccc(F)cc2n1CCN1CCC(NCc2ccc(-c3ccccn3)s2)CC1  0.887 µM
73. O=C(NCc1ccc(Cl)c(Cl)c1)c1ccc(-c2nc3ccc(Cl)cc3[nH]2)cc1  0.905 µM
74. COc1cccc(CC(=O)N2CCC(n3c(C)nc4ccc(F)cc43)CC2)c1  0.906 µM
75. COc1cc(Nc2nccc(NCC(O)c3ccc(C(F)(F)F)cc3)n2)cc(OC)c1OC (stereo unspecified)  0.92 µM
76. COc1cccc2cc(C(=O)N[C@@H](CC(C)C)C(=O)N[C@H](C=NN3CC(=O)NC3=O)CC(C)C)oc12  0.92 µM
77. CCOC(=O)c1nc(-c2cc(Cl)nc(Cl)c2)[nH]c1NC(=S)NCCCN1CCOCC1  0.925 µM
78. CNC(=O)c1ccccc1Nc1cc(Nc2cc(OC)ccn2)ncc1Cl  0.93 µM
79. O=C(/C=C/c1cccc(C(F)(F)F)c1)NCCCCCN1CCN(C(=O)Nc2ccc(Cl)c(Cl)c2)CC1  0.935 µM
80. COc1cc(Cc2cnc(N)nc2N)cc(OCCCCCCC(=O)O)c1OC  0.937 µM
81. COc1ccc(Nc2ncc3c(-c4cccc(NC(=O)c5ccc(N)cc5)c4)c[nH]c3n2)cc1OC  0.975 µM
82. O=C(Oc1ccc(C2CNCCc3c2cc(OC(=O)c2ccc(O)cc2)c(OC(=O)c2ccc(O)cc2)c3Cl)cc1)c1ccc(O)cc1 (stereo unspecified)  0.983 µM
83. CC(=O)Nc1ccc(CN2CCC(N(C)c3ccc(NC(=O)c4cccc(C)c4)cc3)CC2)cc1  0.986 µM
84. CC(=O)Nc1ccc(CNC2Cc3ccc(-c4ccc(Cl)c(Cl)c4)cc3C2)cc1 (stereo unspecified)  0.998 µM
85. C=CCc1cc(Cc2cnc(N)nc2N)c2ccc(C)nc2c1O  1.04 µM
86. COC(=O)c1ccc(CN2CCC(N(Cc3cccc(Oc4ccccc4)c3)S(=O)(=O)c3ccc(NC(C)=O)cc3)CC2)cc1  1.05 µM
87. CCOC(=O)c1ccc(N(CCCN(CCCN(c2ccc(C(=O)OCC)cc2)S(=O)(=O)c2ccc(C)cc2)CCc2ccc(O)cc2)S(=O)(=O)c2ccc(C)cc2)cc1  1.05 µM
88. Cn1cc(C2CCN(CCCCNC(=O)c3sc(-c4ccc(C(F)(F)F)cc4)nc3CO)CC2)c2ccccc21  1.06 µM
89. O=C(/C=C/c1ccc(Cl)c(Cl)c1)NCCCCCCN1CCN(C(=O)Nc2cc(F)cc(F)c2)CC1  1.07 µM
90. CCCCc1ccc(CCNCCCCCCNCCc2ccc(O)c(O)c2)cc1  1.07 µM
91. Cc1cccc(CNc2nc(C)cc(N[C@@H](CC(C)C)C(=O)NCCOc3ccccc3)n2)c1  1.08 µM
92. CCNc1cc(C)nc(Nc2ccc(NC(=O)c3ccco3)cc2)n1  1.09 µM
93. N#Cc1ccc(N[C@@H](CC2CCCCC2)C(=O)NCc2cc(Cl)cc(Cl)c2)c2ccccc12  1.1 µM
94. Cc1ccc(CNC(=O)[C@H](Cc2ccccc2)Nc2ccnc(NCC3CCCCC3)n2)cc1  1.19 µM
95. COc1ccc(S(=O)(=O)N2CCCC(C)C2)cc1N1CCN(C(=O)c2ccc([N+](=O)[O-])o2)CC1 (stereo unspecified)  1.25 µM
96. CS(=O)(=O)c1ccc(-c2cnc(N)c(-c3ccc(O)cc3)c2)cc1  1.36 µM
